US5362480A, “Oral hygiene compositions containing amino sugars as antiplaque agents” (Lever Brothers Company, Division of Conopco, Inc., priority 1992, dated 1994)
In brackets after ≈: the same amount, converted by molar mass. Where two headings read alike, the source gives them in different places.

What was measured:
Clinical plaque strains = details: mouth rinse, five human individuals; cited from earlier work
[1] = test system: Actinomyces strains 12104 and LY7; details: cited from earlier work
A. naeslundii PK29 = assay: Latex bead-bacterial agglutination assay (asialofetuin-coated latex beads); assay type: cell-based, Actinomyces naeslundii PK29
Protocol: A latex bead agglutination assay was utilized to determine the effects of the amino sugars on lectin-mediated bacterial adherence to glycoprotein-coated surfaces. Latex beads (6.0 micrometer diameter) were prepared by suspending them in a 0.5 mg/ml solution of asialofetuin (a glycoprotein rich in oligosaccharide side chains which terminate in β-galactosyl groups) in 20.0 mM trishydroxyaminomethane buffer (ph=8.2) containing 0.73% glycine, 1.0% sodium chloride, 0.1 mM calcium chloride, and 0.02% sodium azide (TGS buffer). The beads were treated for 30.0 min at 37 degrees C. after which they were washed and resuspended in 0.1% BSA in TGS buffer. A. naeslundii PK29 cells were cultured as described in Bacterial Coaggregation Assay, washed, and resuspended in TGS buffer to an optical density (540 nm) of 1.5. The bacterial suspension (0.1 ml) and the prepared latex beads (1.0 ml) were combined with an appropriate concentration of inhibitor (0.8 ml) in 3.0 ml capped polystyrene cuvettes. The cuvettes were gently inverted at room temperature, and optical density (OD 540nm, 1 cm path length) was monitored at 2.0 min intervals for 20.0 min. The instrument employed was Gilson Response®.
The ability of the amino sugars to inhibit bacterial adhesion was also tested using the latex bead assay described above (Methods section). This assay measures the ability of the test agents to interfere with bacterial adhesion to a glycoprotein-coated solid surface, which is analogous to pellicle coated tooth surface. Agglutination of asialofetuin-coated latex beads by A. naeslundii PK29 performed as described above. Inhibition was calculated as 1.0--the change in optical density (540 nm) in the sample containing the inhibitor/the change in optical density in the coaggregation buffer control.

[2] = Bacterial coaggregation assay (A. naeslundii PK29 with S. sanguis G9B); assay type: cell-based, Actinomyces naeslundii PK29; Streptococcus sanguis G9B; details: Actinomyces naeslundii
Protocol: (§1) A bacterial coaggregation assay was used to determine the ability of various amino sugars to interfere with lectin-mediated binding among various bacterial species. For instance, many Actinomyces naeslundii strains coaggregate with Streptococcus sanguis as a result of binding between a lectin produced by the A. naeslundii cells and β-galactose-containing structures on the surface of the streptococci. For the present assay, A. naeslundii PK29 and S. sanguis G9B were cultured overnight in a medium containing 2.5% tryptone, 1.5% yeast extract, 0.1% magnesium sulfate, and 1.0% fructose. The cells were then washed twice in a 1.0 mM potassium phosphate buffer (pH=6.8) containing 1.0 mM calcium chloride, 0.1 mM magnesium chloride, and 50.0 mM potassium chloride (buffered KCl), after which they were resuspended in buffered KCl at an optical density (540 nm) of 1.5. The coaggregations were performed by combining 0.5 ml of each bacterial suspension with 0.2 ml of 5.0% bovine serum albumin (BSA) and 0.8 ml of an appropriate concentration of a targeted anti-plaque agent in 3.0 ml capped polystyrene cuvettes. The cuvettes (path length 1 cm) were gently inverted at room temperature, and the optical density (540 nm) was determined as a function of time (2.0 min intervals; 20 min).
(§2) The instrument employed to measure optical density was a variable wavelength spectrophotometer (Gilson Respons® Spectrophotometer, bought from Gilson).
(§3) The activity of a tested compound was expressed as inhibition relative to buffer controls (i.e., % inhibition=[1-change in optical density (inhibitor)]/change in optical density [control])×100.
(§4) The ability of various amino sugars (prepared as described in Examples 1 and 2) to target to β-galactose-specific binding proteins on A. naeslundii and thus to interfere with coaggregation interactions between A. naeslundii and S. sanguis was investigated. Coaggregation of Actinomyces naeslundii PK29 and Streptococcus sanguis G9B was performed as described in the Methods section (Bacterial Coaggregation Assay) above. Inhibition was calculated as 1.0--the change in optical density (540 nm) in the sample containing compound tested/the change in optical density in the coaggregation buffer control.

Actinomyces naeslundii [3] = details: cited from earlier work
Actinomyces viscosus = details: cited from earlier work
Actinomyces naeslundii [4] = assay: Antimicrobial activity determination (MIC); assay type: cell-based; details: read-out: Minimum Inhibitory Concentration, Actinomyces naeslundii
Protocol: (§5) The antimicrobial activity of the targeted agents was assessed by determining the minimum inhibitory concentration (MIC). Pure cultures of various strains of oral bacterial species as indicated in Table 3 were combined with serial dilutions of the targeted agents in beef heart infusion broth (BHI); starting bacterial concentrations were approximately 1.0×10E6 colony forming units (CFU) per ml. The mixtures were incubated aerobically at 37 degrees C. and the optical density (540 nm, path length 1 cm) of the cultures was measured at 0.0, 24.0 and 48.0 hr using Bausch and Lomb Spec 20 variable wavelength spectrophotometer.
(§6) The amino sugars within the scope of the invention and other compounds were tested for their bacteriostatic effects on the growth of several species of oral bacteria.

Streptococcus sanguis = assay: Antimicrobial activity determination (MIC); assay type: cell-based; details: read-out: Minimum Inhibitory Concentration, Streptococcus sanguis
Protocol: as §5, §6

Streptococcus sobrinus = assay: Antimicrobial activity determination (MIC); assay type: cell-based, Streptococcus sobrinus 6715; details: read-out: Minimum Inhibitory Concentration, Streptococcus sobrinus
Protocol: as §5, §6

[5] = test system: coaggregation of Actinomyces naeslundii PK29 and Streptococcus sanguis G9B (β-galactose-specific binding proteins on A. naeslundii); assay: Bacterial coaggregation assay (A. naeslundii PK29 with S. sanguis G9B); assay type: cell-based; details: for inhibition compared to the parent saccharide, lactose: vs lactose
Protocol: as §1, §2, §3, §4

Neisseria subflava = assay: Antimicrobial activity determination (MIC); assay type: cell-based, Neisseria subflava A1078; details: read-out: Minimum Inhibitory Concentration, Neisseria subflava
Protocol: as §5, §6

Porphyromonas gingivalis = assay: Antimicrobial activity determination (MIC); assay type: cell-based, Porphyromonas gingivalis W83; details: read-out: Minimum Inhibitory Concentration, Porphyromonas gingivalis
Protocol: as §5, §6

Veillonella dispar = assay: Antimicrobial activity determination (MIC); assay type: cell-based, Veillonella dispar 17745; details: BHI broth, 37 degrees C., aerobic, read-out: Minimum Inhibitory Concentration, Veillonella dispar
Protocol: as §5, §6

Prevotella intermedius = assay: Antimicrobial activity determination (MIC); assay type: cell-based, Prevotella intermedius 25611; details: BHI broth, 37 degrees C., aerobic, read-out: Minimum Inhibitory Concentration, Prevotella intermedius
Protocol: as §5, §6

[6] = BHI broth, 37 degrees C., aerobic

## CCO[C@H]1O[C@H](CO)[C@H](O)[C@H](O[C@@H]2O[C@H](CO)[C@H](O)[C@H](O)[C@H]2NC(C)=O)[C@H]1O [GalNAcβ-3Galα1-O-ethyl]
Clinical plaque strains
  plaque inhibitory activity: plaque inhibitory activity
[1]
  adherence: blocked adherence

## O=C[C@H](O)[C@@H](O)[C@@H](O)[C@H](O)CO [Galactose, reference compound]
A. naeslundii PK29; Actinomyces naeslundii, PK29
  inhibition at 2800 µM: 17%
[2]
  inhibition at 2800 µM: 10%

## OC[C@H]1O[C@@H](O[C@H]2[C@H](O)[C@@H](O)C(O)O[C@@H]2CO)[C@H](O)[C@@H](O)[C@H]1O (stereo partly drawn) [Lactose, reference compound]
[2]
  inhibition at 3000 µM: 61%

## CCOC1O[C@H](CO)[C@H](O)[C@H](O[C@@H]2O[C@H](CO)[C@H](O)[C@H](O)[C@H]2NC(C)=O)[C@H]1O (stereo partly drawn) [N-acetyl-galactosamine-β1,3-galactose-O-ethyl]
Actinomyces naeslundii [3]
  inhibition of binding to human erythrocytes: inhibitor of binding
Actinomyces viscosus
  inhibition of binding to human erythrocytes: inhibitor of binding

## CCCCCCCCCCN[C@@H]1O[C@H](CO)[C@H](O)[C@H](O)[C@H]1O [N-decyl galactosylamine]
A. naeslundii PK29; Actinomyces naeslundii, PK29
  inhibition at 1800 µM: 51%
A. naeslundii PK29; vs galactose
  inhibition of agglutination compared to galactose: substantially more potent inhibitor

## CCCCCCCCCCNC1O[C@H](CO)[C@@H](O)[C@H](O)[C@H]1O (stereo partly drawn) [N-decyl glucosylamine]
Actinomyces naeslundii [4]; [6]
  MIC: > 5000 µg/mL
A. naeslundii PK29
  inhibition of agglutination of glycoprotein-coated latex beads (in words): not an effective inhibitor
A. naeslundii PK29; Actinomyces naeslundii, PK29
  inhibition at 1800 µM: 9%

## CCCCCCCCCCN[C@@H]1O[C@H](CO)[C@@H](O[C@@H]2O[C@H](CO)[C@H](O)[C@H](O)[C@H]2O)[C@H](O)[C@H]1O [N-decyl lactosylamine]
Streptococcus sanguis; [6]
  MIC: 600 µg/mL (≈ 1250 µM)
Actinomyces naeslundii [4]; [6]
  MIC: 30 µg/mL (≈ 62.3 µM)
Streptococcus sobrinus; [6]
  MIC: 30 µg/mL (≈ 62.3 µM)
[2]
  inhibition at 1000 µM: 11%
  inhibition at 2100 µM: 30%
  inhibition at 3000 µM: 64%
[5]
  inhibition of β-galactose-specific coaggregation (in words): effective inhibitors
  inhibition compared to the parent saccharide, lactose: slighly improved inhibition
Neisseria subflava; [6]
  MIC: 60 µg/mL (≈ 125 µM)

## CCCCCCCN[C@@H]1O[C@H](CO)[C@H](O)[C@H](O)[C@H]1O [N-heptyl galactosylamine]
Streptococcus sanguis; [6]
  MIC: > 1000 µg/mL
Actinomyces naeslundii [4]; [6]
  MIC: 250 µg/mL (≈ 901 µM)
Streptococcus sobrinus; [6]
  MIC: 1000 µg/mL (≈ 3610 µM)
[2]
  inhibition at 2900 µM: 20%
[5]
  inhibition of β-galactose-specific coaggregation (in words): effective inhibitors
[5]; at the concentration tested, vs galactose
  inhibition of bacterial coaggregation compared to the parent saccharide, galactose: approximately twice as much
Porphyromonas gingivalis; [6]
  MIC: 125 µg/mL (≈ 451 µM)
Neisseria subflava; [6]
  MIC: 125 µg/mL (≈ 451 µM)

## CCCCCCCN[C@@H]1O[C@H](CO)[C@@H](O[C@@H]2O[C@H](CO)[C@H](O)[C@H](O)[C@H]2O)[C@H](O)[C@H]1O [N-heptyl lactosylamine]
Streptococcus sanguis; [6]
  MIC: > 1000 µg/mL
Actinomyces naeslundii [4]; [6]
  MIC: 500 µg/mL (≈ 1140 µM)
Streptococcus sobrinus; [6]
  MIC: 1000 µg/mL (≈ 2280 µM)
[2]
  inhibition at 1100 µM: 23%
  inhibition at 3000 µM: 63%
  inhibition at 11400 µM: 79%
[5]
  inhibition of β-galactose-specific coaggregation (in words): effective inhibitors
  inhibition compared to the parent saccharide, lactose: slighly improved inhibition
Porphyromonas gingivalis; [6]
  MIC: 500 µg/mL (≈ 1140 µM)
Neisseria subflava; [6]
  MIC: 500 µg/mL (≈ 1140 µM)

## CCCCCCCCNC1O[C@H](CO)[C@@H](O)[C@H](O)[C@H]1O (stereo partly drawn) [N-octyl glucosylamine, reference compound]
[2]
  inhibition at 3400 µM: 0%
[5]
  inhibition of β-galactose-specific coaggregation (in words): lack of inhibition

## CCCCCCCCCCCCOS(=O)(=O)[O-].[Na+] [Sodium dodecyl sulfate, reference compound]
Streptococcus sanguis
  MIC: 15 µg/mL
Actinomyces naeslundii [4]
  MIC: 8 µg/mL
Veillonella dispar
  MIC: 60 µg/mL
Streptococcus sobrinus
  MIC: 60 µg/mL
Porphyromonas gingivalis
  MIC: 2 µg/mL
Prevotella intermedius
  MIC: 16 µg/mL
Neisseria subflava
  MIC: 8 µg/mL
